The text below walks through data of US4393225A, “AI-77 Compounds and pharmaceutically acceptable salts thereof” (Asahi Kasei Kogyo Kabushiki Kaisha, priority 1979, dated 1983).

In one assay the test system is ulcer. The assay can be described thus: Anti-ulcer test (restraint and water immersion ulcer in rats, i.p.). It is filed as in vivo, Male Wistar rats. To be noted: Rattus norvegicus, ip, read-out: % Inhibition of Ulcer. The method in brief:
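Male Wistar rats (~150 g), fasted 24 h, dosed i.p. with compound in physiological saline; 1 h later restrained and immersed to xiphisternum in 21 °C water for 6 h. Stomachs examined microscopically, ulcers scored 0–3, and percent inhibition calculated.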
`CC(C)CC(NC(=O)C(O)C(O)C(CC(N)=O)NC(=O)C(C)C)C1Cc2cccc(O)c2C(=O)O1` (centres unmarked) [VII-28-2]: the inhibition in vivo at 25 mg/kg stood at 78%.

In the case of `CC(C)CC(NC(=O)C(O)C1OC(=O)CC1N)C1Cc2cccc(OCCCBr)c2C(=O)O1` (centres unmarked) [IIIa-13-19], the inhibition in vivo at 50 mg/kg was 100%.

Turning to `CC(C)CC(NC(=NC(C)C)C(O)C(O)C(N)CC(=O)O)C1Cc2cccc(O)c2C(=O)O1` (centres unmarked) [Vb-1-41], the inhibition in vivo at 50 mg/kg came out at 89%.

Staying with this assay, now noted: Rattus norvegicus, ip; 25 mg/kg i.p.; read-out: % Inhibition of Ulcer.
Regarding `CNC(CC(N)=O)C(O)C(OC(C)=O)C(=O)NC(CC(C)C)C1Cc2cccc(O)c2C(=O)O1` (centres unmarked) [VII-20-1], the inhibition in vivo at 25 mg/kg was determined as 89%.

Still in this assay, the particulars now being: Rattus norvegicus, ip; 50 mg/kg i.p.; read-out: % Inhibition of Ulcer.
For `CCCC=Cc1ccc(C(=O)NC2CC(=O)OC2C(O)C(=O)NC(CC(C)C)C2Cc3cccc(OCC)c3C(=O)O2)cc1` (centres unmarked) [IIIa-5-74], the inhibition in vivo at 50 mg/kg was 44%.

As for `CCCCC(=O)Oc1cccc2c1C(=O)OC(C(CC(C)C)NC(=O)C(O)C1C=CC(=O)O1)C2` (centres unmarked) [IVa-3-4], the inhibition in vivo at 50 mg/kg came out at 33%.

Turning to `CC(C)CC(NC(=O)C(O)C1OC(=O)CC1NC(=O)C1CCCCC1=O)C1Cc2cccc(O)c2C(=O)O1` (centres unmarked) [IIIa-1-33], the inhibition in vivo at 50 mg/kg stood at 66%.

`CCNC1CC(=O)OC1C(OC)C(=O)NC(CC(C)C)C1Cc2cccc(OCC)c2C(=O)O1` (centres unmarked) [IIIa-24-1]: the inhibition in vivo at 50 mg/kg is 56%.

As for `CC(C)COc1cccc2c1C(=O)OC(C(CC(C)C)NC(=O)C(O)C1OC(=O)CC1NC(=O)C(C)C)C2` (centres unmarked) [IIIa-5-4], the inhibition in vivo at 50 mg/kg is 33%.

Take `CC(C)CC(NC(=O)C(O)C1OC(=O)CC1NC(=O)Cc1ccccc1)C1Cc2cccc(O)c2C(=O)O1` (centres unmarked) [IIIa-1-20]: the inhibition in vivo at 50 mg/kg was determined as 66%.

Consider `Cc1ccc(CC(=O)NC2CC(=O)OC2C(O)C(=O)NC(CC(C)C)C2Cc3cccc(O)c3C(=O)O2)cc1` (centres unmarked) [IIIa-1-65], for which the inhibition in vivo at 50 mg/kg stood at 66%.

On to `CNC1CC(=O)OC1C(OC(=O)CC(C)C)C(=O)NC(CC(C)C)C1Cc2cccc(O)c2C(=O)O1` (centres unmarked) [IIIa-28-2], for which the inhibition in vivo at 50 mg/kg stood at 66%.

On to `CCOc1cccc2c1C(=O)OC(C(CC(C)C)NC(=O)C(OC(=O)CC)C1OC(=O)CC1N)C2` (centres unmarked) [IIIa-14-9], for which the inhibition in vivo at 50 mg/kg turned out to be 56%.

`CCCC(=O)NC1CC(=O)OC1C(O)C(=O)NC(CC(C)C)C1Cc2cccc(OC(C)C)c2C(=O)O1` (centres unmarked) [IIIa-5-121]: the inhibition in vivo at 50 mg/kg came out at 33%.

Turning to `COC(C)CC(=O)Oc1cccc2c1C(=O)OC(C(CC(C)C)NC(=O)C(O)C1C=CC(=O)O1)C2` (centres unmarked) [IVa-3-17], the inhibition in vivo at 50 mg/kg stood at 33%.

For `CCNC(CC(=O)O)C(O)C(O)C(=N)NC(CC(C)C)C1Cc2cccc(OC)c2C(=O)O1` (centres unmarked) [Vb-14-1], the inhibition in vivo at 50 mg/kg came out at 89%.

Take `CCC(=O)OC(C(=O)NC(CC(C)C)C1Cc2cccc(O)c2C(=O)O1)C1OC(=O)CC1NC(C)=O` (centres unmarked) [IIIa-2-10]: the inhibition in vivo at 50 mg/kg was found to be 44%.

Turning to `CCCCCCCCC=CCCCCCCCC(=O)NC1CC(=O)OC1C(OC(C)=O)C(=O)NC(CC(C)C)C1Cc2cccc(OC(C)=O)c2C(=O)O1` (centres unmarked) [IIIa-3-5], the inhibition in vivo at 50 mg/kg was 22%.

Turning to `CCCCCCCCCCCCCCCCCCNC1CC(=O)OC1C(OCCCC)C(=O)NC(CC(C)C)C1Cc2cccc(OC(C)=O)c2C(=O)O1` (centres unmarked) [IIIa-26-3], the inhibition in vivo at 50 mg/kg was 44%.

Consider `CC(=O)Oc1ccc(C(=O)NC2CC(=O)OC2C(O)C(=O)NC(CC(C)C)C2Cc3cccc(O)c3C(=O)O2)cc1` (centres unmarked) [IIIa-1-34], for which the inhibition in vivo at 50 mg/kg is 66%.

Consider `Cc1c(CC(=O)NC2CC(=O)OC2C(O)C(=O)NC(CC(C)C)C2Cc3cccc(O)c3C(=O)O2)ccc2ccccc12` (centres unmarked) [IIIa-1-21], for which the inhibition in vivo at 50 mg/kg worked out at 56%.

Take `CC(C)CC(NC(=O)C(O)C1OC(=O)CC1NCCCCCO)C1Cc2cccc(O)c2C(=O)O1` (centres unmarked) [IIIa-18-52]: the inhibition in vivo at 50 mg/kg is 94%.

Consider `CCCC(=O)Oc1cccc2c1C(=O)OC(C(CC(C)C)NC(=O)C(OCC)C1OC(=O)CC1N)C2` (centres unmarked) [IIIa-17-3], for which the inhibition in vivo at 50 mg/kg is 56%.

For the molecule `CC(C)CC(NC(=O)C(O)C1OC(=O)CC1N)C1Cc2cccc(OC(=O)C(Cl)(Cl)Cl)c2C(=O)O1` (centres unmarked) [IIIa-12-9], the inhibition in vivo at 50 mg/kg is 66%.

For `CC(C)CC(NC(=O)C(O)C1OC(=O)CC1NC(=O)CC1CC1)C1Cc2cccc(O)c2C(=O)O1` (centres unmarked) [IIIa-1-79], the inhibition in vivo at 50 mg/kg stood at 66%.

For `CCCCCNC(=O)C=CC(O)C(O)C(=O)NC(CC(C)C)C1Cc2cccc(O)c2C(=O)O1` (centres unmarked) [VIII-1-2], the inhibition in vivo at 50 mg/kg is 56%.

In the case of `COc1ccc(COc2cccc3c2C(=O)OC(C(CC(C)C)NC(=O)C(O)C2C=CC(=O)O2)C3)cc1` (centres unmarked) [IVa-4-23], the inhibition in vivo at 50 mg/kg worked out at 33%.

On to `CCCCN=C(NC(CC(C)C)C1Cc2cccc(OCC)c2C(=O)O1)C(O)C(O)C(N)CC(=O)O` (centres unmarked) [Vb-5-2], for which the inhibition in vivo at 50 mg/kg turned out to be 89%.

For `CCCCCOC(=O)c1ccc(C(=O)NC2CC(=O)OC2C(O)C(=O)NC(CC(C)C)C2Cc3cccc(O)c3C(=O)O2)cc1` (centres unmarked) [IIIa-1-51], the inhibition in vivo at 50 mg/kg is 44%.

For the molecule `CC(C)CC(NC(=O)C(O)C1OC(=O)CC1NC(=O)CCCCCCCCCO)C1Cc2cccc(O)c2C(=O)O1` (centres unmarked) [IIIa-1-78], the inhibition in vivo at 50 mg/kg was found to be 66%.

In the case of `CCOC(C(=O)NC(CC(C)C)C1Cc2cccc(O)c2C(=O)O1)C1OC(=O)CC1N` (centres unmarked) [IIIa-16-7], the inhibition in vivo at 50 mg/kg worked out at 72%.

In the case of `CCOc1cccc2c1C(=O)OC(C(CC(C)C)NC(=O)C(O)C1OC(=O)CC1NC(=O)c1cccn1C(C)=O)C2` (centres unmarked) [IIIa-5-28], the inhibition in vivo at 50 mg/kg is 44%.

Regarding `CCOc1cccc2c1C(=O)OC(C(CC(C)C)NC(=O)C(OC(C)=O)C1OC(=O)CC1NC(=O)c1ccc(OCCC(C)C)cc1)C2` (centres unmarked) [IIIa-6-9], the inhibition in vivo at 50 mg/kg stood at 22%.

For `CCOc1cccc2c1C(=O)OC(C(CC(C)C)NC(=O)C(O)C1OC(=O)CC1NC(=O)C1CC1)C2` (centres unmarked) [IIIa-5-18], the inhibition in vivo at 50 mg/kg was found to be 44%.

Take `CCCCCCCCCCCCCCCCCC(=O)NC1CC(=O)OC1C(OC(C)=O)C(=O)NC(CC(C)C)C1Cc2cccc(OCC)c2C(=O)O1` (centres unmarked) [IIIa-6-4]: the inhibition in vivo at 50 mg/kg amounted to 22%.

Consider `CC(C)CC(NC(=O)C(O)C1OC(=O)CC1NC(=O)CCCc1cccs1)C1Cc2cccc(O)c2C(=O)O1` (centres unmarked) [IIIa-1-26], for which the inhibition in vivo at 50 mg/kg stood at 66%.

Turning to `CCOC(C(=O)NC(CC(C)C)C1Cc2cccc(OC(=O)C(Cl)(Cl)Cl)c2C(=O)O1)C1OC(=O)CC1N` (centres unmarked) [IIIa-17-6], the inhibition in vivo at 50 mg/kg came to 56%.

In the case of `CNC1CC(=O)OC1C(OC(=O)C(Cl)(Cl)Cl)C(=O)NC(CC(C)C)C1Cc2cccc(O)c2C(=O)O1` (centres unmarked) [IIIa-28-3], the inhibition in vivo at 50 mg/kg is 66%.

`CCCCCCCCCCCCCCCCCCOc1cccc2c1C(=O)OC(C(CC(C)C)NC(=O)C(O)C1OC(=O)CC1N)C2` (centres unmarked) [IIIa-13-5]: the inhibition in vivo at 50 mg/kg was found to be 72%.

For the molecule `CCCCCOC(C)CC(=O)NC1CC(=O)OC1C(O)C(=O)NC(CC(C)C)C1Cc2cccc(OCC)c2C(=O)O1` (centres unmarked) [IIIa-5-42], the inhibition in vivo at 50 mg/kg is 33%.

As for `CC(C)CC(NC(=O)C(O)C1OC(=O)CC1NC(=O)c1cccs1)C1Cc2cccc(O)c2C(=O)O1` (centres unmarked) [IIIa-1-25], the inhibition in vivo at 50 mg/kg is 66%.

On to `CCNC(CC(=O)O)C(O)C(O)C(=N)NC(CC(C)C)C1Cc2cccc(OC(C)=O)c2C(=O)O1` (centres unmarked) [Vb-13-1], for which the inhibition in vivo at 50 mg/kg stood at 78%.

Regarding `CC(=O)OC(C(=O)NC(CC(C)C)C1Cc2cccc(O)c2C(=O)O1)C1OC(=O)CC1NC(=O)c1ccc(OCCC(C)C)cc1` (centres unmarked) [IIIa-2-9], the inhibition in vivo at 50 mg/kg amounted to 33%.

For the molecule `CC(=O)Oc1cccc2c1C(=O)OC(C(CC(C)C)NC(=O)C(OC(=O)C(Cl)(Cl)Cl)C1OC(=O)CC1NC(=O)C(Cl)(Cl)Cl)C2` (centres unmarked) [IIIa-3-10], the inhibition in vivo at 50 mg/kg was 33%.
